Earlier results in patent publication US20050203105A1, “Composition and method for controlling alcohol-induced facial flushing in susceptible humans” (priority 2003, published 2005).
Where two headings read alike, the source gives them in different places.

Columns and labels:
QT interval = conditions: in vivo
[1] = for time to peak plasma levels: oral
muscarinic receptors = tested on: muscarinic receptors; parameters: key: +++++ = Very high; +++ = high; ++ = moderate; + = low; ± = low to none
H1 receptor = H1 receptor (Homo sapiens, UniProt P35367)
[2] = tested on: flushing responses to red wine, chocolate and hot water; conditions: one patient with carcinoid syndrome; two weeks of oral prior treatment
alcohol-induced flushing [3] = conditions: for rise in skin oxygen tension after sherry: oral, 30 minutes before 30-50 ml of sherry
[4] = for Half-life: increased in renal impairment (cimetidine: also hepatic impairment and the elderly); for Elimination, Urine, Unchanged, Oral / effect of food on absorption: oral
[5] = given with an MAOI
[6] = tested on: potassium rectifier currents
alcohol-induced flushing [7] = conditions: for Facial flushing: 0.64 gm orally one hour before ethanol
[8] = dose range of 10 to 40 mg
ethanol intoxication = conditions: intravenous
[9] = tested on: alcohol-induced rosacea flushing; conditions: subcutaneous pretreatment; 360 ml of 6% ethanol; patients with rosacea

Sequence of H1 receptor (P35367 whole entry): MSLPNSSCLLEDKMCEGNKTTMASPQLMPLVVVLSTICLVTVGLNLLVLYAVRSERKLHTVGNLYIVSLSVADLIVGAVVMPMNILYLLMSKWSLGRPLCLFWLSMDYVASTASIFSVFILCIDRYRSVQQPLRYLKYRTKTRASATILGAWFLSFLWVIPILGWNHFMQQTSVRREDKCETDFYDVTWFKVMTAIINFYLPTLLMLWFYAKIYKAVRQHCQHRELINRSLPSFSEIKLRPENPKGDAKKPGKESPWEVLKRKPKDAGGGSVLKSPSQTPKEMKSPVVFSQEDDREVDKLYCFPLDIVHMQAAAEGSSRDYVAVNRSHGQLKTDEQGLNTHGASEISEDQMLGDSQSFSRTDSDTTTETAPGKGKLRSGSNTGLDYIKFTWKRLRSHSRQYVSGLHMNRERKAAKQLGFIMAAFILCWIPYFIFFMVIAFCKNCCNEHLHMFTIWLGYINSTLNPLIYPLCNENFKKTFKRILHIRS

**Q.** Which “QT prolongation, ventricular arrhythmias, torsade de pointes” value (QT interval) does the source give for `COc1ccc(CCN2CCC(Nc3nc4ccccc4n3Cc3ccc(F)cc3)CC2)cc1` [Astemizole] here?
**A.** can cause QT interval prolongation/ventricular arrhythmias

**Q.** What about the “half-life, distribution phase” value ([1]; biphasic) of the same compound?
**A.** 20 h

**Q.** And the protein bound ([1]; in vivo)?
**A.** 96.7%

**Q.** What about the “time to peak plasma levels” value [1] of the same compound?
**A.** ≤ 1 h

**Q.** And the “reduction of absorption when taken with food” value ([1]; with food)?
**A.** 60%

**Q.** With `CN1CCC(=C2c3ccccc3CCc3cccnc32)CC1` [Azatadine] as the compound, how does the Anticholinergic activity (muscarinic receptors) read?
**A.** ++

**Q.** And the Antihistaminic activity (H1 receptor)?
**A.** ++

**Q.** For `CN(C)CCC(c1ccc(Br)cc1)c1ccccn1` (centres unmarked) [Brompheniramine], which Anticholinergic activity (muscarinic receptors) is on record?
**A.** ++

**Q.** And the Antihistaminic activity (H1 receptor)?
**A.** +++

**Q.** For `CN(C)CCOC(c1ccc(Cl)cc1)c1ccccn1` (centres unmarked) [Carbinoxamine], which Anticholinergic activity (muscarinic receptors) is on record?
**A.** +++

**Q.** And the Antihistaminic activity (H1 receptor)?
**A.** + to ++

**Q.** For `CN(C)CCC(c1ccc(Cl)cc1)c1ccccn1` (centres unmarked) [Chlorpheniramine], which “flushing response to red wine, chocolate and hot water challenges” value (from here on “flushing response to red wine”) [2] is on record?
**A.** did not affect the flushing response

**Q.** What about the “sedative action of absorbed alcohol” value (alcohol-induced flushing [3]; in vivo) of the same compound?
**A.** potentiates the sedative action of the alcohol absorbed

**Q.** And the “rise in skin oxygen tension after sherry” value (alcohol-induced flushing [3])?
**A.** did not affect the rise in skin oxygen tension

**Q.** Which “Peak Plasma Concentration” value ([4]; 300 mg dose, dose dependent) does the source give for `CN/C(=N/CCSCc1nc[nH]c1C)NC#N` [Cimetidine] here?
**A.** 0.7 to 3.2 µg/mL

**Q.** And the “Elimination, Urine, Unchanged, IV” value ([4]; IV)?
**A.** 75%

**Q.** What about the “Peak Plasma Concentration” value ([4]; IV) of the same compound?
**A.** (3.5-7.5 IV) mcg/ml

**Q.** What about the Bioavailability ([4]; in vivo) of the same compound?
**A.** 60-70%

**Q.** What about the “Elimination, Metabolized” value ([4]; in vivo) of the same compound?
**A.** 30-40%

**Q.** What about the “Protein Binding” value ([4]; in vivo) of the same compound?
**A.** 13-25%

**Q.** What about the “Time to Peak Plasma Concentration” value ([4]; in vivo) of the same compound?
**A.** 0.75 to 1.5 h

**Q.** And the “Volume of Distribution” value ([4]; in vivo)?
**A.** 0.8 to 1.2 L/kg

**Q.** What about the “removal by hemodialysis or peritoneal dialysis” value ([4]; in vivo) of the same compound?
**A.** not significantly removed by hemodialysis or peritoneal dialysis

**Q.** And the Half-life [4]?
**A.** ≈2^2 hrs

**Q.** And the “Elimination, Urine, Unchanged, Oral” value [4]?
**A.** 48%

**Q.** What about the “effect of food on absorption” value [4] of the same compound?
**A.** unaffected by food

**Q.** And the “flushing response to red wine” value [2]?
**A.** blocked the flushing responses to red wine and chocolate, but not to hot water

**Q.** What about the “effect on hepatic oxidative metabolism” value (cytochrome P450 enzymes) of the same compound?
**A.** inhibits hepatic oxidative metabolism by most cytochrome P450 enzymes

**Q.** And the “rise in skin oxygen tension after sherry” value (alcohol-induced flushing [3])?
**A.** did noticeably reduce the increase in oxygen concentration

**Q.** With `CN(C)CC[C@@H](c1ccc(Cl)cc1)c1ccccn1` [Dexchlorpheniramine] as the compound, how does the “interaction with an MAOI” value [5] read?
**A.** may cause severe hypotension

**Q.** Which “Peak Plasma Concentration” value ([4]; 40 mg dose, dose dependent) does the source give for `NC(N)=Nc1nc(CSCCC(N)=NS(N)(=O)=O)cs1` [Famotidine] here?
**A.** 0.076 to 0.1 µg/mL

**Q.** What about the “Elimination, Urine, Unchanged, IV” value ([4]; IV) of the same compound?
**A.** 65-70%

**Q.** And the Bioavailability ([4]; in vivo)?
**A.** 40-45%

**Q.** What about the “Elimination, Metabolized” value ([4]; in vivo) of the same compound?
**A.** 30-35%

**Q.** And the “Protein Binding” value ([4]; in vivo)?
**A.** 15-20%

**Q.** What about the “Time to Peak Plasma Concentration” value ([4]; in vivo) of the same compound?
**A.** 1 to 3 h

**Q.** What about the “Volume of Distribution” value ([4]; in vivo) of the same compound?
**A.** 1.1 to 1.4 L/kg

**Q.** What about the Half-life [4] of the same compound?
**A.** 2.5-3.5^3 hrs

**Q.** And the “Elimination, Urine, Unchanged, Oral” value [4]?
**A.** 25-30%

**Q.** What about the “effect on hepatic oxidative metabolism” value (cytochrome P450 enzymes) of the same compound?
**A.** do not seem to interfere with hepatic oxidation

**Q.** With `CCOC(=O)N1CCC(=C2c3ccc(Cl)cc3CCc3cccnc32)CC1` [Loratadine, ethyl 4-(8-chloro-5,6-dihydro-11H-benzo[5,6]cyclohepta[1,2-b]pyridin-11-ylidene)-1-piperidinecarboxylate] as the compound, how does the potassium rectifier currents [6] read?
**A.** inhibit the potassium rectifier currents

**Q.** With `CN1CCC(CN2c3ccccc3Sc3ccccc32)C1` (centres unmarked) [Methdilazine] as the compound, how does the Anticholinergic activity (muscarinic receptors) read?
**A.** +++

**Q.** What about the Antihistaminic activity (H1 receptor) of the same compound?
**A.** ++ to +++

**Q.** Which results are given for `CNC(=C[N+](=O)[O-])NCCSCc1csc(CN(C)C)n1` [Nizatidine]?
**A.** Peak Plasma Concentration ([4]; 150 mg dose, dose dependent): 0.7 to 1.8 µg/mL; Peak Plasma Concentration ([4]; 300 mg dose, dose dependent): 1.4 to 3.6 µg/mL; Plasma concentrations 12 hours after administration ([4]; 12 hours after administration): less than 10 mcg/L; Bioavailability ([4]; in vivo): >90%; Elimination, Metabolized ([4]; in vivo): <18%; Protein Binding ([4]; in vivo): ≈35%; Time to Peak Plasma Concentration ([4]; in vivo): 0.5 to 3 h; Volume of Distribution ([4]; in vivo): 0.8 to 1.5 L/kg; Half-life [4]: 1-2^3 hrs; Elimination, Urine, Unchanged, Oral [4]: 60%

**Q.** What does the source list for `CN1CCC2=C(C1)C(c1ccccc1)c1ccccc12` (centres unmarked) [Phenindamine]?
**A.** Anticholinergic activity (muscarinic receptors): ++; Antihistaminic activity (H1 receptor): ++

**Q.** What does the source list for `CNC(=C[N+](=O)[O-])NCCSCc1ccc(CN(C)C)o1` [Ranitidine]?
**A.** Bioavailability ([4]; IM): (90-100 IM) %; Peak Plasma Concentration ([4]; IM): (0.58 IM) mcg/ml; Time to Peak Plasma Concentration ([4]; IM): (0.25 IM) hrs; Elimination, Urine, Unchanged, IV ([4]; IV): 68-79%; Bioavailability ([4]; in vivo): 50-160%; Elimination, Metabolized ([4]; in vivo): <10%; Protein Binding ([4]; in vivo): 15%; Time to Peak Plasma Concentration ([4]; in vivo): 1 to 3 h; Volume of Distribution ([4]; in vivo): 1.2 to 1.9 L/kg; Half-life [4]: 2-3^3 hrs; Peak Plasma Concentration ([4]; no dose given, dose dependent): 0.44 to 0.55 µg/mL; Elimination, Urine, Unchanged, Oral [4]: 30-35%; effect of food on absorption [4]: not significantly impaired by the administration of food; effect on hepatic oxidative metabolism (cytochrome P450 enzymes): do not seem to interfere with hepatic oxidation

**Q.** For `CC(C)(C)c1ccc(C(O)CCCN2CCC(C(O)(c3ccccc3)c3ccccc3)CC2)cc1` (centres unmarked) [Terfenadine], which “single overdose associated with serious cardiovascular adverse events” value (QT interval) is on record?
**A.** ≥ 360 mg

**Q.** What about the “dose eliminated via the urine” value ([1]; in vivo) of the same compound?
**A.** 40%

**Q.** What about the elimination half-life ([1]; in vivo) of the same compound?
**A.** 20 h

**Q.** And the “fecal excretion of the dose” value ([1]; in vivo)?
**A.** 60%

**Q.** What about the “time to peak plasma levels” value [1] of the same compound?
**A.** 2 h

**Q.** For `CC(CN(C)C)CN1c2ccccc2Sc2ccccc21` (centres unmarked) [Trimeprazine], which Anticholinergic activity (muscarinic receptors) is on record?
**A.** +++

**Q.** What about the Antihistaminic activity (H1 receptor) of the same compound?
**A.** ++ to +++

**Q.** For `CN(C)CCN(Cc1ccccc1)c1ccccn1` [Tripelennamine], which Anticholinergic activity (muscarinic receptors) is on record?
**A.** ±

**Q.** What about the Antihistaminic activity (H1 receptor) of the same compound?
**A.** + to ++

**Q.** Which results are given for `Cc1ccc(/C(=C\CN2CCCC2)c2ccccn2)cc1` [Triprolidine]?
**A.** Anticholinergic activity (muscarinic receptors): ++; Antihistaminic activity (H1 receptor): ++ to +++

**Q.** What does the source list for `CC(=O)Oc1ccccc1C(=O)O` [aspirin, acetylsalicylic acid]?
**A.** Body sway (alcohol-induced flushing [7]; both groups of subjects): reduced; alcohol induced increase in heart rate (alcohol-induced flushing [7]; flushing group): reduced; Facial flushing (alcohol-induced flushing [7]; flushing group): markedly reduced; Facial flushing (alcohol-induced flushing [7]; non-flushing Occidentals): slightly increased

**Q.** For `Clc1cccc(Cl)c1N=C1NCCN1` [clonidine], which “flushing response to red wine” value [2] is on record?
**A.** blocked the flushing responses to red wine and chocolate, but not to hot water

**Q.** Which “dose dependence of pharmacokinetics” value [8] does the source give for `Clc1ccc2c(c1)CCc1cccnc1C2=C1CCNCC1` [desloratadine, descarboethoxyloratadine] here?
**A.** independent of dose

**Q.** With `C=CCN1CC[C@]23c4c5ccc(O)c4O[C@H]2C(=O)CC[C@@]3(O)[C@H]1C5` [naloxone] as the compound, how does the “impairment by ethanol (typing errors)” value (ethanol intoxication; CPAF group) read?
**A.** reversed this effect

**Q.** And the “impairment by ethanol (typing errors)” value (ethanol intoxication; non-flushing group)?
**A.** no effect

**Q.** What about the “alcohol-induced rosacea flushing (AIRF)” value [9] of the same compound?
**A.** blocked
